Results from PubChem BioAssay AID1963597 (National Center for Advancing Translational Sciences (NCATS), 2024).
Non-standard residues stand in square brackets, D forms with d. Residues, ends and D or L forms follow the SMILES beside them. *: point of attachment. Sta = CC(C)C[C@H](N)[C@@H](O)CC(=O)O; Isovaleryl = CC(C)CC(=O)*

System: human liver microsomes, metabolic stability half-life
Assay: NCATS Human Liver Microsomal (HLM) Stability Profiling
Conditions: higher = more stable; screened at 1 µM (by protocol)
Text: Assay submitter (PI): Dr. Pranav Shah
NIH Center for Advancing Translational Sciences
Pharmacokinetic issues were the leading cause of drug attrition, accounting for approximately 40% of all cases before the turn of the century. To this end, several high-throughput in vitro assays like microsomal stability have been developed to evaluate the pharmacokinetic profiles of compounds in early stages of drug discovery. At NCATS, a single-point rat liver microsomal (RLM) stability assay is used as a Tier I assay, while human liver microsomal (HLM) stability is employed as a Tier II assay. While it is beneficial to have compound libraries screened for HLM stability, the increasing magnitude of hits routinely generated, and the time- and re-source-intensive nature of the assay makes it important to find alternatives. One strategy is to rely on in silico models that have been developed using data generated from these assays. Herein, we describe the development of an HLM stability prediction model using our in-house dataset of ~7,000 compounds, employing both traditional and advanced machine learning methods. Additionally, the strong correlation between our RLM and HLM data was further reinforced by the fact that our HLM model performance improved after adding RLM stability predictions as an input descriptor. […] The best model along with a subset of our dataset has been made publicly accessible on the NCATS@ADME website for the benefit of the greater drug discovery community.
Microsomal Stability Assay
The substrate depletion method, also called the in vitro t1/2 method was used to analyze test compounds. Incubation and liquid handling were carried out using a previously described method (Shah et al., 2016). Briefly, each reaction mixture (110 µL) consisted of a test article (1 µM), human liver microsomes (0.5 mg/mL), and NADPH regenerating system in phosphate buffer at pH 7.4. Samples were incubated in 384-well plates at 37 degrees C for 0, 5, 10, 15, 30 and 60 min. At each time point, 10 µL of the incubation mixture was aspirated into another 384-well plate which contained cold acetonitrile (ACN) with internal standard (albendazole). All plates were centrifuged at 3000 rpm for 20 min at 4 degrees C, and the supernatants were transferred to a 384-well injection plate. Sample quantification and analysis was performed using a previously described method (Shah et al., 2016, Siramshetty et al., 2020).
1: Shah, P. et al. An Automated High-Throughput Metabolic Stability Assay Using an Integrated High-Resolution Accurate Mass Method and Automated Data Analysis Software. Drug Metab Dispos 44, 1653-1661 (2016).
2: Siramshetty et al. Retrospective assessment of rat liver microsomal stability at NCATS: data and QSAR models. Sci Rep 26;10(1):20713 (2020).

Compound | half-life [min]
CCc1cccc2cc(C(O)CNC(C)(C)C)oc12 (stereo not drawn) | 96.4
COc1ccc(C(=O)c2ccccc2O)c(O)c1 | 8.9
CCN1CCN(C(=O)C2Cn3cccc3C(=O)N2CC(C)C)CC1 (stereo not drawn) | > 120
CC1(C)SCCN(S(=O)(=O)c2ccc(OCC#CCO)cc2)[C@@H]1C(=O)NO | > 120
COC(=O)[C@@H]1CC2=CC(=O)CC[C@]2(C)[C@@]23O[C@@H]2C[C@@]2(C)[C@H](CC[C@@]24CCC(=O)O4)[C@@H]13 | > 120
O=S(=O)(O)c1cc(I)c(O)c2ncccc12 | > 120
O=[N+]([O-])c1cccc(S(=O)(=O)NCCNS(=O)(=O)c2cccc([N+](=O)[O-])c2)c1 | 52.3
O=C(O)C1CN(Cc2ccc(-c3nc4cc(Cc5ccccc5F)ccc4s3)c(F)c2)C1 | > 120
CC(=O)OCC(CCn1cnc2cnc(N)nc21)COC(C)=O | 2.34
CC(C)(C)Oc1ccc(OCC2Cc3ccccc3CN2C(=O)c2cccc3ccccc23)cc1 (stereo not drawn) | 5.19
Nc1ccccc1NC(=O)c1ccc(CNc2nccc(-c3cccnc3)n2)cc1 | > 120
O=C(N/N=C/C1C=CC([N+](=O)[O-])O1)c1ccc(O)cc1 (stereo not drawn) | > 120
NC(N)=Nc1nc(CSCC/C(N)=N/S(N)(=O)=O)cs1 | > 120
CCOc1cc(CNC(=O)c2ccc(C)c(NC(=O)c3nsc4ccccc34)c2)ccc1OC | 7.12
Cc1cc(O)c(-c2ccc([C@@H](C)CN(C)C)cc2)c2c1[nH]c(=O)c1sccc12 | 95.3
N#Cc1cn([C@@H]2O[C@H](CO)[C@H](O)[C@@H]2O)c2ncnc(N)c12 | > 120
Cc1cccc(NC(=O)Nc2cccs2)c1C | 10.2
O=C(Cn1cc(SCc2cccc(Cl)c2)c2ccccc21)N1CCCCC1 | 0.84
CCN(CC)CC(=O)Nc1c(C)cccc1C(=O)OC | 24
Nc1c(Br)cc(Br)cc1CNC1CCC(O)CC1 (stereo not drawn) | 110
O=C(OCC(O)CO)c1ccccc1Nc1ccnc2c(C(F)(F)F)cccc12 (stereo not drawn) | 34.6

Compound | half-life [min]
COc1cc(Nc2ncc3c(n2)-c2ccc(Cl)cc2C(c2c(F)cccc2OC)=NC3)ccc1C(=O)O | > 120
CCCCC(CC)CN=C(N)NC(N)=NCCCCCCN=C(N)NC(N)=NCC(CC)CCCC (stereo not drawn) | > 120
CC(=O)N1CCN([C@H]2CCN(C(=O)N(C)[C@H](C)c3cc(C(F)(F)F)cc(C(F)(F)F)c3)[C@@H](c3ccc(F)cc3C)C2)CC1 | 12.8
Cc1cccc(/C=N/Nc2cc(N3CCOCC3)n3nc(-c4ccncc4)cc3n2)c1 | 23.1
CC(C)(C)c1ccc(C(=O)Nc2cc(Cl)c(Br)cc2C(=O)O)cc1 | 6.17
O=c1oc2ccccc2c(O)c1Cc1c(O)c2ccccc2oc1=O | 33.3
O=C(O)c1ccc(-c2ccc(N3CCCCCC3)nc2)cc1 | > 120
CC(C)c1ccc2oc(-c3ccc(NC(=O)c4cc5ccccc5o4)cc3)nc2c1 | 25.3
Cc1cccc(C)c1NC(=O)[C@H]1CCCCN1C | > 120
COc1cccc2c1C(=O)c1c(O)c3c(c(O)c1C2=O)C[C@@](O)(C(=O)CO)C[C@@H]3O[C@H]1C[C@H](N)[C@H](O[C@@H]2CCCCO2)[C@H](C)O1 | > 120
COc1ccc(C(=O)C2CCN(CC(=O)N(Cc3nc4c(c(=O)[nH]3)COCC4)CC3CC3)CC2)cc1 | 81.7
CCOc1ccc(-n2c([C@@H](C)N(Cc3cccnc3)C(=O)Cc3ccc(OC(F)(F)F)cc3)nc3ncccc3c2=O)cc1 | 8.23
CCc1cc(Cl)c(OC)c(C(=O)NC[C@@H]2CCCN2CC)c1O | 13.6
Cc1ccc(N2CCN(C(=O)C3CCN(c4ncnc5c4nc4n5CCCCC4)CC3)CC2)c(C)c1 | > 120
C[C@@H](N)[C@@H](O)c1ccccc1 | 92.4
NC(=O)c1c(OCc2c(F)cc(Br)cc2F)nsc1NC(=O)NCCCCN1CCCC1 | > 120
CCOC(=O)C1(c2ccccc2)CCN(CCc2ccc(N)cc2)CC1 | 86.5
C#CCN(Cc1cc2c(=O)n(C)c(CN3CCN(C)CC3)nc2cc1Cl)c1ccc(C(=O)NCc2cccnc2)cc1 | 4.83
CN(C)[C@@H]1C(=O)C(C(N)=O)=C(O)[C@@]2(O)C(=O)C3=C(O)c4c(O)cccc4C[C@H]3C[C@@H]12 | > 120
O=C(Nc1ccnc(NC(=O)C2CC2)c1)c1c(Cl)cccc1Cl | > 120
N#Cc1cccc(CN2CCOC[C@H]2c2ncc(-c3ccc(F)cc3)[nH]2)c1 | 3.38

Compound | half-life [min]
Cc1ccc2c(c1)C(=O)[C@]1(O)CCN(c3ccccc3)C1=N2 | 1.71
CC1=C(C(=O)Nc2cccc(-c3cn[nH]c3)c2)C(c2ccccc2Cl)N=C(Nc2nc3ccccc3o2)N1 (stereo not drawn) | 49.1
Cc1ccc(-c2cc3ncc(C(=O)c4cc([N+](=O)[O-])ccc4O)cn3n2)cc1 | 4.91
[O-][n+]1cccc(CO)c1 | > 120
COC(=O)[C@@H]1[C@H]2C[C@H]3c4[nH]c5ccccc5c4CCN3C[C@@H]2CC[C@@H]1O | 83.9
c1ccc(-c2cnc(Nc3ccc(OCCN4CCCC4)cc3)s2)cc1 | 103
CN1CCN(c2cccc(Nc3nc4c(-c5ccc(S(C)(=O)=O)cc5)cccn4n3)c2)CC1 | > 120
O=C1N(c2ccccc2)c2ccccc2C1(Cc1ccncc1)Cc1ccncc1 | 1.71
CN(C)CCN(Cc1cccs1)c1ccccn1 | 23.8
CC(Cc1ccccc1)(NC(=O)CN)c1ccccc1 (stereo not drawn) | > 120
CNC(=O)c1ccccc1Nc1nc(Nc2ccc(N3CCOCC3)cc2OC)ncc1Cl | 34.9
CCOc1ccc(NC(=O)CC(C)O)cc1 (stereo not drawn) | > 120
CC[C@@H](C)Nc1cc(C(=O)NC2CC3CC[C@@H](C2)N3c2ccc(C(=O)C3CC3)cn2)c(C)cc1C(N)=O (stereo partly drawn) | > 120
C[C@]12CCC(=O)C=C1CC[C@@H]1[C@@H]2CC[C@@]2(C)[C@H]1CC[C@]2(O)C(=O)CO | 62.1
Cc1cc(=O)n(-c2ccccc2)n1C | > 120
N#C/C(=C1\SCC(c2ccccc2Cl)S1)n1ccnc1 (stereo not drawn) | 86.2
Cc1nc(NC(=O)N2CCCC2C(N)=O)sc1-c1ccnc(C(C)(C)C(F)(F)F)c1 (stereo not drawn) | > 120
Cc1nn(C)c2c1C(c1ccc(C(F)(F)F)cc1)C(C#N)=C(N)O2 (stereo not drawn) | 11
CC1=C(C(=O)Nc2cccc(-c3ccn[nH]3)c2)C(c2ccccc2Cl)N=C(Nc2nc3ccccc3o2)N1 (stereo not drawn) | 71.5
CC(C)c1ccc2oc3nc(N)c(C(=O)O)cc3c(=O)c2c1 | > 120
Cc1ccc(C(C)(O)c2nc3ccccc3s2)c(C)c1 (stereo not drawn) | 4.22

Compound | half-life [min]
N#Cc1cccc(CN2CC(COc3ccccc3)C3(C2)CN(c2ccccc2)C3)c1 (stereo not drawn) | 3.65
CC(C(=O)O)c1ccc2c(c1)[nH]c1ccc(Cl)cc12 (stereo not drawn) | > 120
CC(C)(C)Nc1nc(Nc2ccc(C(N)=O)cc2)cc(N)c1C#N | > 120
CC1(C)O[C@@H]2C[C@H]3[C@@H]4C[C@H](F)C5=CC(=O)CC[C@]5(C)[C@H]4[C@@H](O)C[C@]3(C)[C@]2(C(=O)CO)O1 | 18
O=c1[nH]c2ccc(Cl)cc2c(N[C@@H]2CN3CCC2CC3)c1-c1nc2ccccc2[nH]1 | 18.8
O=C(O)c1ccc(OCCN2CCCCC2)cc1 | > 120
CC(C)CC(=O)N[C@H](C(=O)N[C@H](C(=O)N[C@@H](CC(C)C)[C@@H](O)CC(=O)N[C@@H](C)C(=O)N[C@@H](CC(C)C)[C@@H](O)CC(=O)O)C(C)C)C(C)C (Isovaleryl-VV[Sta]A[Sta]-OH) | > 120
Clc1cccc(N2CCNCC2)c1 | 39.8
COc1cc2nc(=NC(=O)c3cccnc3)n3c(c2cc1OC)NCC3 | 45
Clc1ccc(N2CCN(c3ncnc4c3nc3n4CCCC3)CC2)cc1 | 37.9
O=C(O)CN1C(=O)c2cccc3cccc(c23)C1=O | > 120
O=C(O)CC1CCC(c2ccc(-c3ccc(Nc4ccc(C(F)(F)F)nc4)cn3)cc2)CC1 (stereo not drawn) | > 120
OC1(c2ccc(Cl)cc2)c2ccccc2C2=NCCN21 (stereo not drawn) | 74.4
C#C[C@]1(O)CC[C@H]2[C@@H]3CCC4=CC(=O)CCC4=C3C=C[C@@]21CC | 38.2
CC[C@@H]([C@H](C)O)n1ncn(-c2ccc(N3CCN(c4ccc(OC[C@@H]5CO[C@@](Cn6cncn6)(c6ccc(F)cc6F)C5)cc4)CC3)cc2)c1=O | > 120
CN1c2cc(C(=O)Nc3ccc(S(N)(=O)=O)cc3)ccc2C(=O)N2CCCCC21 (stereo not drawn) | 32.8
Cc1ccc(-c2noc([C@@H]3Cc4nc[nH]c4CN3Cc3cccc(C#N)c3)n2)cc1 | 11.4
FC(F)(F)c1ccccc1-c1cc(C(F)(F)F)c2nc(C3=NOC4(CCCCC4)C3)[nH]c2c1 | 67.7
Cc1ccc(-c2nc3ccc(C)cn3c2CC(=O)N(C)C)cc1 | > 120
COc1ccc(C2Nc3ccccc3C(=O)N2Cc2ccco2)cc1COc1ccc(NC(C)=O)cc1 (stereo not drawn) | 2.15
